Measured values reported in ChEMBL document CHEMBL6115017, “Discovery of DFV890, a Potent Sulfonimidamide-Containing NLRP3 Inflammasome Inhibitor” (J Med Chem, 2025).
Values after ≈ are worked out from the molar mass of the structure shown. Active and inactive are the calls of the source. The rule behind the calls is not given here.

Assays:
[1] = Metabolic stability in rat hepatocytes assessed as intrinsic clearance measured per 10^6 cells; assay type: ADME, cell-based, Hepatocyte; details: read-out: CLH
[2] = Metabolic stability in human hepatocytes assessed as intrinsic clearance measured per 10^6 cells; assay type: ADME, cell-based, Hepatocyte; details: read-out: CLH
[3] = Fraction unbound in human plasma; assay type: ADME, cell-free
[4] = Half life in Sprague-Dawley rat at 5 mg/kg, po by LC-MS analysis; assay type: ADME, organism-based; details: in vivo
[5] = Volume of distribution at steady state in Sprague-Dawley rat at 5 mg/kg, po by LC-MS analysis; assay type: ADME, organism-based; details: in vivo
[6] = Half life in C57 BL6 mouse at 10 mg/kg, po and 2 mg/kg, iv by LC-MS analysis; assay type: ADME, organism-based; details: in vivo
[7] = Volume of distribution at steady state in C57 BL6 mouse at 10 mg/kg, po and 2 mg/kg, iv by LC-MS analysis; assay type: ADME, organism-based; details: in vivo
[8] = Volume of distribution at steady state in Beagle dog at 2 mg/kg, po and 1 mg/kg, iv by LC-MS analysis; assay type: ADME, organism-based, Canis lupus familiaris; details: in vivo
[9] = Half life in Cynomolgus monkey at 5 mg/kg, po and 2 mg/kg, iv by LC-MS analysis; assay type: ADME, organism-based, Macaca fascicularis; details: in vivo
[10] = Volume of distribution at steady state in Cynomolgus monkey at 5 mg/kg, po and 2 mg/kg, iv by LC-MS analysis; assay type: ADME, organism-based, Macaca fascicularis; details: in vivo
[11] = AUC (infinity) in Beagle dog at 2 mg/kg, po by LC-MS analysis; assay type: ADME, organism-based, Canis lupus familiaris; details: in vivo
[12] = Cmax in Beagle dog at 2 mg/kg, po by LC-MS analysis; assay type: ADME, organism-based, Canis lupus familiaris; details: in vivo
[13] = Cytotoxicity against human HEK293 cells measured after 72 hrs; assay type: toxicity, cell-based
[14] = Thermodynamic solubility in PBS at pH 7.4; assay type: physicochemical; details: read-out: Therm_solubility
[15] = Thermodynamic solubility in PBS at pH 5; assay type: physicochemical; details: read-out: Therm_solubility
[16] = Thermodynamic solubility in PBS at pH 1; assay type: physicochemical; details: read-out: Therm_solubility
[17] = Metabolic stability in mouse hepatocytes assessed as intrinsic clearance measured per 10^6 cells; assay type: ADME, cell-based, Hepatocyte; details: read-out: CLH
[18] = Metabolic stability in Cynomolgus monkey hepatocytes assessed as intrinsic clearance measured per 10^6 cells; assay type: ADME, cell-based, Macaca fascicularis, Hepatocyte; details: read-out: CLH
Cytochrome P450 2C8 = target: T1, Cytochrome P450 2C8 (Homo sapiens, UniProt P10632); assay: Inhibition of CYP2C8 (unknown origin); assay type: ADME
T1 sequence (P10632 whole entry): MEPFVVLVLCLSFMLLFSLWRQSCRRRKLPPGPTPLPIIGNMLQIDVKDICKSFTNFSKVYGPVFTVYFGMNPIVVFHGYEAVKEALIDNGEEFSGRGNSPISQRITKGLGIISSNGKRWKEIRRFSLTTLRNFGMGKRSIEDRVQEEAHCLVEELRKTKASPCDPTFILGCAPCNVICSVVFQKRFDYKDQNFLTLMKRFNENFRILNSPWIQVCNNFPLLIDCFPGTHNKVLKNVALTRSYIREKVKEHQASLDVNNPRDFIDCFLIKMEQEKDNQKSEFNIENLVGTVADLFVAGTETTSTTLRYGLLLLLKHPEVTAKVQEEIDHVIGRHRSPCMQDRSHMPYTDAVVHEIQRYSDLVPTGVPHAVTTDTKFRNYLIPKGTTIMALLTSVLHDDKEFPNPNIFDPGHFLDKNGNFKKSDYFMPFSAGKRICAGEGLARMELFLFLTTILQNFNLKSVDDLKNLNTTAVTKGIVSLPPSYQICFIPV

Cytochrome P450 2C9 = Cytochrome P450 2C9 (Homo sapiens, UniProt P11712); assay: Inhibition of CYP2C9 (unknown origin); assay type: ADME
Sequence of Cytochrome P450 2C9 (P11712 whole entry): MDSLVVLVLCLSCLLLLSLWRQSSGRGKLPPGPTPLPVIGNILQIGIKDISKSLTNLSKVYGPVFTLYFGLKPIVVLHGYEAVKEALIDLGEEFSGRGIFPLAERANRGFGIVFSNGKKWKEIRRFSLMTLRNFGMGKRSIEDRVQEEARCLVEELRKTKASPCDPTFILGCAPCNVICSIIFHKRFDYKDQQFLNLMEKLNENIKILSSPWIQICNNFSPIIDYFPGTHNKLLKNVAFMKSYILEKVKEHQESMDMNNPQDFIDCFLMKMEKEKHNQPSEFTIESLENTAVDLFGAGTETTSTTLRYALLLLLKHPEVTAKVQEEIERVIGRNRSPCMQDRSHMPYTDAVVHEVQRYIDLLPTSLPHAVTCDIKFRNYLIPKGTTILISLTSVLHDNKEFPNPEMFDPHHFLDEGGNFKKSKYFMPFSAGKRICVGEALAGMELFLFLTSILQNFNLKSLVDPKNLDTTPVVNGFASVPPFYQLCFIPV

Cytochrome P450 3A5 = Cytochrome P450 3A5 (Homo sapiens, UniProt P20815); assay: Inhibition of CYP3A5 (unknown origin); assay type: ADME
Sequence of Cytochrome P450 3A5 (P20815 whole entry): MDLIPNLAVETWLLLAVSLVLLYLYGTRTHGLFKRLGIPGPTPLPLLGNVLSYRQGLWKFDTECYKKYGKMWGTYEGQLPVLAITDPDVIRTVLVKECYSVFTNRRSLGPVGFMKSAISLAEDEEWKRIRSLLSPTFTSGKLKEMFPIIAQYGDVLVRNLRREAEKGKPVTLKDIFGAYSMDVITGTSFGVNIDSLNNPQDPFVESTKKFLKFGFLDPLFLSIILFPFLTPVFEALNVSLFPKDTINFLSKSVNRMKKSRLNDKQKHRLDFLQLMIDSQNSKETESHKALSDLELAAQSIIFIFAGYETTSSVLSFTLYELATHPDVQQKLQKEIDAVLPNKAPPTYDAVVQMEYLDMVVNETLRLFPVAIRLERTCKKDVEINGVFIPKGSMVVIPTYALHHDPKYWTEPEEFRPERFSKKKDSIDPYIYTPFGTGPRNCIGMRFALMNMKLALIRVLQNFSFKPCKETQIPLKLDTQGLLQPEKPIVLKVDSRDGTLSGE

Cytochrome P450 2D6 = Cytochrome P450 2D6 (Homo sapiens, UniProt P10635); assay: Inhibition of CYP2D6 (unknown origin) by time dependent inhibition assay; assay type: ADME
Sequence of Cytochrome P450 2D6 (P10635 whole entry): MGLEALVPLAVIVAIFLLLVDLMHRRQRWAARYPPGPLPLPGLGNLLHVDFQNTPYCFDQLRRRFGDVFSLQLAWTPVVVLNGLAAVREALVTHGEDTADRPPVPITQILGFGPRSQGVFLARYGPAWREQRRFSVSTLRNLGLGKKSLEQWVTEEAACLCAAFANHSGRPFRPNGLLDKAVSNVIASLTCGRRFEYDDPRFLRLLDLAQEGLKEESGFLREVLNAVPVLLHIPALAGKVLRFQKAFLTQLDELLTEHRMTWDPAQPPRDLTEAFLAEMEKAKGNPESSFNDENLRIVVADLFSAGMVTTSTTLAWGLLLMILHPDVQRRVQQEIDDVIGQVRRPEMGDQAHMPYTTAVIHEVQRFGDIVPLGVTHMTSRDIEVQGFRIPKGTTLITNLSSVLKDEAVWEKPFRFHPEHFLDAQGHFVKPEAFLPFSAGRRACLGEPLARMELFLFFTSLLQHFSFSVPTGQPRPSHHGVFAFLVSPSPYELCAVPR

[19] = target: Voltage-gated inwardly rectifying potassium channel KCNH2 (Homo sapiens, UniProt Q12809); assay: Inhibition of hERG; assay type: toxicity
Sequence of Voltage-gated inwardly rectifying potassium channel KCNH2 (Q12809 whole entry): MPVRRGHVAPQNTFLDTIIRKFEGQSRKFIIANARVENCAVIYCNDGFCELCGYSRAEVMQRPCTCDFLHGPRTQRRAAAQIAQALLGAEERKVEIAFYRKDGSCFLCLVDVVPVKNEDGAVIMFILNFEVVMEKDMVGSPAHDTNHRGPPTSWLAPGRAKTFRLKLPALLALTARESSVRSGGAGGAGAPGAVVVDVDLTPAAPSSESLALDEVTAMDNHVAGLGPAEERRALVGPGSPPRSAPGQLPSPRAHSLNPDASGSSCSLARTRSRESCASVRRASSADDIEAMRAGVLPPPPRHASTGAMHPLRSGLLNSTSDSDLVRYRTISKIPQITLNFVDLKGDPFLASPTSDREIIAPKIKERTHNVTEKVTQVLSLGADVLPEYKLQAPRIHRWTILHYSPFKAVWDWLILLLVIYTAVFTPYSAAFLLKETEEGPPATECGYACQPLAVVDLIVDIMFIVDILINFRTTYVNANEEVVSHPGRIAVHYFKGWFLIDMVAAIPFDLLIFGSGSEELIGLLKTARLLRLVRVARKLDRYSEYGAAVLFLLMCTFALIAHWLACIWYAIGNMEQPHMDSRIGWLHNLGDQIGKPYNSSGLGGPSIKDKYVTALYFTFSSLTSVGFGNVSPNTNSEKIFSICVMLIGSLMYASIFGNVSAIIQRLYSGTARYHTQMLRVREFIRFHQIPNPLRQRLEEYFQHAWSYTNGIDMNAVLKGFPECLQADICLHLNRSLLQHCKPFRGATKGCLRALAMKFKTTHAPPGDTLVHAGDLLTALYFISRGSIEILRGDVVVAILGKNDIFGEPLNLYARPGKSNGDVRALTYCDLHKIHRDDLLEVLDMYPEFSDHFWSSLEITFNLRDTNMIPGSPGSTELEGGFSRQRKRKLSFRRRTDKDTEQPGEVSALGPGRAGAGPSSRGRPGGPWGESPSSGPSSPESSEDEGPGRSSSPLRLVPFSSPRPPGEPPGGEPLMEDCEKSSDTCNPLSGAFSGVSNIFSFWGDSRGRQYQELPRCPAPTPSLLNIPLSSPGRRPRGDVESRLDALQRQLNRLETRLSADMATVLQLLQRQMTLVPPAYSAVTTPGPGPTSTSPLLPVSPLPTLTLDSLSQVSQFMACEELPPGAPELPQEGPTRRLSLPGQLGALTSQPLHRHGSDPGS

hERG = hERG (Homo sapiens, UniProt Q12809); assay: Inhibition of hERG at 30 uM relative to control; assay type: toxicity
Sequence of hERG (Q12809 whole entry): as above

Bile salt export pump = Bile salt export pump (Homo sapiens, UniProt O95342); assay: Inhibition of BSEP (unknown origin) assessed as reduction in uptake rate of taurocholic acid at 5 uM relative to control; assay type: toxicity
[20] = target: 5-hydroxytryptamine receptor 2A (Homo sapiens) (UniProt P28223); assay: Inhibition of 5HT2A (unknown origin); details: concentration not given here
Sequence of 5-hydroxytryptamine receptor 2A (Homo sapiens) (P28223 whole entry): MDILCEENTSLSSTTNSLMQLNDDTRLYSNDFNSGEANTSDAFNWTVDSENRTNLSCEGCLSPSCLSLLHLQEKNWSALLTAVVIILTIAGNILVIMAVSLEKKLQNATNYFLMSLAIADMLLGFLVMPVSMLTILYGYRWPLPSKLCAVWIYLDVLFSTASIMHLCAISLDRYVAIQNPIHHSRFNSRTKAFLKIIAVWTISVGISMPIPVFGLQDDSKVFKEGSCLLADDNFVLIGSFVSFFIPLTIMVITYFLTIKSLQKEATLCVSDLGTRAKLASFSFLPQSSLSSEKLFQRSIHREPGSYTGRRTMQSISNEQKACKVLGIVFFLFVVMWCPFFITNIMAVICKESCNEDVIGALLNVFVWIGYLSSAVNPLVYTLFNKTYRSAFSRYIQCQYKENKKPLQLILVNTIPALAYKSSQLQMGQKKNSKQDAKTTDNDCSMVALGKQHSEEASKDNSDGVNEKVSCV

Macrophage = assay: Inhibition of pyrin inflammasome activation in immortalized NLRP3-KO mouse macrophages assessed as inhibition of TcdB-induced IL-1beta release pretreated for 1 hr followed by induced with TcdB measured after 6 hrs by HTRF analysis; assay type: cell-based; details: time 7.0 hrs
PBMC = assay: Antagonist activity at NLRP3 inflammasome activation in Cynomolgus monkey PBMC assessed as inhibition of LPS-stimulated IL-1beta release by measuring free concentration pretreated for 1 hr followed by induced with LPS measured after 18 hrs by HTRF analysis; assay type: cell-based; details: Macaca fascicularis, filed as antagonist, time 19.0 hrs
THP-1 = assay: Inhibition of pyroptosis in PMA-primed human THP-1 cells assessed as release of lactate dehydrogenase
Mus musculus [21] = assay: In vivo inhibition of NLRP3 dependent cytokine production in po dosed LPS-challenged C57BL/6 mouse model assessed as inhibition of LPS-induced IL-6 production in blood pretreated for 1 hr followed by induced with LPS measured after 5 hrs by cytokine bead assay; assay type: functional, organism-based; details: time 6.0 hrs
Mus musculus [22] = assay: In vivo inhibition of NLRP3 dependent cytokine production in po dosed LPS-challenged C57BL/6 mouse model assessed as inhibition of LPS-induced IL-18 production in blood pretreated for 1 hr followed by induced with LPS measured after 5 hrs by cytokine bead assay; assay type: functional, organism-based; details: time 6.0 hrs
[23] = In vivo inhibition of NLRP3 dependent cytokine production in po dosed LPS-challenged C57BL/6 mouse model assessed as inhibition of LPS-induced IL-1beta production in blood by measuring plasma compound concentration by enhanced flex bead assay; assay type: functional, organism-based
PXR = target: T2, PXR (Homo sapiens, UniProt O75469); assay: Activation of PXR (unknown origin) assessed as activation at 30 uM relative to control; assay type: toxicity; details: read-out: Activity
T2 sequence (O75469 whole entry): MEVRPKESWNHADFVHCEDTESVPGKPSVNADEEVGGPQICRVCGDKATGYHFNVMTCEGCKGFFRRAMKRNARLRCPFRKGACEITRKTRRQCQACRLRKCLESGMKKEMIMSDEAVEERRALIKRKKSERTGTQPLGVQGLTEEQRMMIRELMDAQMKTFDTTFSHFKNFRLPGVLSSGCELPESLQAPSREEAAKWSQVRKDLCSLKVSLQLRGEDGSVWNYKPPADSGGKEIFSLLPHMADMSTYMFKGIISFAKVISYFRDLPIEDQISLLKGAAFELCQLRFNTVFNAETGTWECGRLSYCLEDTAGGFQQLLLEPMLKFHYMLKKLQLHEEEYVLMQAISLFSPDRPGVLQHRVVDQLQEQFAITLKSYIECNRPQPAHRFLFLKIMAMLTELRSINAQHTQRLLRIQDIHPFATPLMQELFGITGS

## CC(C)(O)c1ncc([S@](N)(=O)=NC(=O)Nc2c3c(cc4c2CCC4)CCC3)s1
[1]
  hepatocyte CLint: 7.5 µL/min/1e6 cells
[2]
  hepatocyte CLint: 8.4 µL/min/1e6 cells
[3]
  fraction unbound: 0.006
[4]
  half-life: 2.81 h
[5]
  Vdss: 0.188 L/kg
[6]
  half-life: 3.9 h
[7]
  Vdss: 0.12 L/kg
[8]
  Vdss: 0.16 L/kg
[9]
  half-life: 5.2 h
[10]
  Vdss: 0.084 L/kg
[11]
  AUC(0-inf): 163 µg·h/mL
[12]
  Cmax: 6560 ng/mL
[13]
  EC50 at 72 h: > 100 µM
[14]
  solubility thermodynamic: 21 µg/mL (≈ 49.9 µM)
[15]
  solubility thermodynamic: 9.1 µg/mL (≈ 21.6 µM)
[16]
  solubility thermodynamic: 7.4 µg/mL (≈ 17.6 µM)
[17]
  hepatocyte CLint: < 1.9 µL/min/1e6 cells
[18]
  hepatocyte CLint: 4.2 µL/min/1e6 cells
Cytochrome P450 2C8
  IC50: > 60 µM
Cytochrome P450 2C9
  IC50: > 60 µM
Cytochrome P450 3A5
  IC50: > 60 µM
Cytochrome P450 2D6
  TDI: Not_active
[19]
  IC50: > 30 µM
hERG
  inhibition at 30 µM: 8%
Bile salt export pump
  Activity: Not_active
[20]
  inhibition: > 50%
Macrophage
  Activity: inactive
PBMC
  fIC50: 1 nM
THP-1
  IC50: 0.027 µM
Mus musculus [21]
  inhibition: Dose-dependent-effect
Mus musculus [22]
  inhibition: Dose-dependent-effect
[23]; Mus musculus, C57BL/6
  IC50: 0.416 µg/mL
[23]; route po
  IC90: 3.742 µg/mL
PXR
  activity at 30 µM: 19%
